Measured values as given in PubChem BioAssay AID256 (DTP/NCI, 2004).
Several values for one entry are separate records, joined by “and”; a condition that tells them apart may be missing. Identical values can stand only once. Inconclusive results and toxic doses are left out. Residues, ends and D or L forms follow the SMILES beside them. *: point of attachment. Cbz = O=C(OCc1ccccc1)*; OtBu = CC(C)(C)O*

Tested on: CD2F1 mice, L1210 leukemia ip, survival T/C
Test: NCI In Vivo Anticancer Drug Screen. Data for tumor model L1210 Leukemia (intraperitoneal) in CD2F1 (CDF1) mice
Conditions: higher = longer survival
Method in brief: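 Implant tumor; dose compound or vehicle; measure endpoint in both groups; report treated divided by control.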

[1] = endpoint: mean survival time, dose: 200.0 mg/kg/injection, schedule: Q04DX002 (ip), vehicle: saline with Tween-80
[2] = endpoint: mean survival time, dose: 100.0 mg/kg/injection, schedule: Q01DX009 (ip), vehicle: saline with Tween-80
[3] = endpoint: mean survival time, dose: 100.0 mg/kg/injection, schedule: Q04DX003 (ip), vehicle: saline with Tween-80
[4] = endpoint: mean survival time, dose: 200.0 mg/kg/injection, schedule: Q04DX003 (ip), vehicle: saline with Tween-80
[5] = endpoint: mean survival time, dose: 12.5 mg/kg/injection, schedule: Q01DX009 (ip), vehicle: saline
[6] = endpoint: mean survival time, dose: 25.0 mg/kg/injection, schedule: Q01DX009 (ip), vehicle: saline with Tween-80
[7] = endpoint: mean survival time, dose: 25.0 mg/kg/injection, schedule: Q01DX009 (ip), vehicle: saline
[8] = endpoint: mean survival time, dose: 50.0 mg/kg/injection, schedule: Q01DX009 (ip), vehicle: saline
[9] = endpoint: mean survival time, dose: 100.0 mg/kg/injection, schedule: Q04DX003 (ip), vehicle: saline sonified
[10] = endpoint: mean survival time, dose: 400.0 mg/kg/injection, schedule: Q04DX003 (ip), vehicle: saline sonified

Compound: COc1cc2c(cc1OC)-c1c(cnn1C1OC(COC(C)=O)C(OC(C)=O)C(OC(C)=O)C1OC(C)=O)CC2 (stereo not drawn)
- T/C (endpoint: mean survival time, dose: 12.5 mg/kg/injection, schedule: Q01DX005 (ip), vehicle: other): 103 % of control
- T/C (endpoint: mean survival time, dose: 25.0 mg/kg/injection, schedule: Q01DX005 (ip), vehicle: other): 93 % of control
- T/C (endpoint: mean survival time, dose: 50.0 mg/kg/injection, schedule: Q01DX005 (ip), vehicle: other): 90 % of control
- T/C (endpoint: mean survival time, dose: 100.0 mg/kg/injection, schedule: Q01DX005 (ip), vehicle: other): 87 % of control

Compound: CC1=CC(=O)C2C(C)(C)CCCC2(C)C1(O)CCc1ccoc1 (stereo not drawn)
- T/C (endpoint: mean survival time, dose: 100.0 mg/kg/injection, schedule: Q04DX002 (ip), vehicle: saline with Tween-80): 110 % of control
- T/C [1]: 103 % of control
- T/C (endpoint: mean survival time, dose: 400.0 mg/kg/injection, schedule: Q04DX002 (ip), vehicle: saline with Tween-80): 107 % of control

Compound: O=C1C=C(N2CCOCC2)c2ccccc2C1=O
- T/C (endpoint: mean survival time, dose: 75.0 mg/kg/injection, schedule: Q01DX001 (ip), vehicle: saline): 100 % of control
- T/C (endpoint: mean survival time, dose: 150.0 mg/kg/injection, schedule: Q01DX001 (ip), vehicle: saline): 94 % of control

Compound: COc1ccc(C(CC(=O)c2ccccc2)[Se]c2ccccc2)cc1 (stereo not drawn)
- T/C (endpoint: median survival time, dose: 25.0 mg/kg/injection, schedule: Q01DX009 (ip), vehicle: Klucel (hydroxypropylcellulose) (HPC)): 101 % of control
- T/C (endpoint: median survival time, dose: 50.0 mg/kg/injection, schedule: Q01DX009 (ip), vehicle: Klucel (hydroxypropylcellulose) (HPC)): 100 % of control
- T/C (endpoint: median survival time, dose: 100.0 mg/kg/injection, schedule: Q01DX009 (ip), vehicle: Klucel (hydroxypropylcellulose) (HPC)): 101 % of control
- T/C (endpoint: median survival time, dose: 200.0 mg/kg/injection, schedule: Q01DX009 (ip), vehicle: Klucel (hydroxypropylcellulose) (HPC)): 94 % of control

Compound: C(=NCCN=Cc1ccccc1)c1ccccc1
- T/C [2]: 97 % of control
- T/C (endpoint: mean survival time, dose: 200.0 mg/kg/injection, schedule: Q01DX009 (ip), vehicle: saline with Tween-80): 97 % of control
- T/C (endpoint: mean survival time, dose: 400.0 mg/kg/injection, schedule: Q01DX009 (ip), vehicle: saline with Tween-80): 96 % of control

Compound: CC(=O)CC(=O)c1ccc(C(=O)CC(C)=O)cc1.[Fe]
- T/C [3]: 96 % of control
- T/C [4]: 89 % of control
- T/C (endpoint: mean survival time, dose: 400.0 mg/kg/injection, schedule: Q04DX003 (ip), vehicle: saline with Tween-80): 104 % of control

Compound: O=C1c2cccc(O)c2C(=O)c2c(O)cc(CO)cc21
- T/C (endpoint: mean survival time, dose: 1.25 mg/kg/injection, schedule: Q01DX009 (ip), vehicle: other): 96 % of control
- T/C (endpoint: mean survival time, dose: 2.5 mg/kg/injection, schedule: Q01DX009 (ip), vehicle: other): 102 % of control
- T/C (endpoint: mean survival time, dose: 5.0 mg/kg/injection, schedule: Q01DX009 (ip), vehicle: other): 96 % of control
- T/C (endpoint: mean survival time, dose: 10.0 mg/kg/injection, schedule: Q01DX009 (ip), vehicle: other): 102 % of control

Compound: CCS(=O)(=O)c1c(C(N)=O)ncn1C1OC(CO)C(O)C1O (stereo not drawn)
- T/C (endpoint: median survival time, dose: 9.13 mg/kg/injection, schedule: Q01DX005 (ip), vehicle: saline): 91 % of control
- T/C (endpoint: median survival time, dose: 18.25 mg/kg/injection, schedule: Q01DX005 (ip), vehicle: saline): 102 % of control
- T/C (endpoint: median survival time, dose: 36.5 mg/kg/injection, schedule: Q01DX005 (ip), vehicle: saline): 102 % of control
- T/C (endpoint: median survival time, dose: 73.0 mg/kg/injection, schedule: Q01DX005 (ip), vehicle: saline): 102 % of control
- T/C (endpoint: median survival time, dose: 146.0 mg/kg/injection, schedule: Q01DX005 (ip), vehicle: saline): 100 % of control

Compound: NC(=S)N/N=C/c1ccc(O)cn1
- T/C [5]: 124 % of control
- T/C (endpoint: mean survival time, dose: 12.5 mg/kg/injection, schedule: Q03HX024 (ip), vehicle: saline): 153 % of control and 163 % of control
- T/C (endpoint: mean survival time, dose: 18.8 mg/kg/injection, schedule: Q01DX009 (ip), vehicle: saline with Tween-80): 162 % of control
- T/C [6]: 155 % of control
- T/C [7]: 150 % of control and 170 % of control
- T/C (endpoint: mean survival time, dose: 25.0 mg/kg/injection, schedule: Q01DX009 (oral), vehicle: saline): 94 % of control
- T/C (endpoint: mean survival time, dose: 25.0 mg/kg/injection, schedule: Q03HX024 (ip), vehicle: saline): 168 % of control and 217 % of control
- T/C (endpoint: mean survival time, dose: 37.5 mg/kg/injection, schedule: Q01DX009 (ip), vehicle: saline with Tween-80): 160 % of control and 166 % of control
- T/C (endpoint: mean survival time, dose: 50.0 mg/kg/injection, schedule: Q01DX009 (ip), vehicle: saline with Tween-80): 183 % of control
- T/C [8]: 151 % of control and 154 % of control
- T/C (endpoint: mean survival time, dose: 50.0 mg/kg/injection, schedule: Q01DX009 (oral), vehicle: saline): 95 % of control
- T/C (endpoint: mean survival time, dose: 50.0 mg/kg/injection, schedule: Q03HX024 (ip), vehicle: saline): 162 % of control and 211 % of control
- T/C [2]: 102 % of control
- T/C (endpoint: mean survival time, dose: 100.0 mg/kg/injection, schedule: Q01DX009 (oral), vehicle: saline): 103 % of control
- T/C (endpoint: mean survival time, dose: 150.0 mg/kg/injection, schedule: Q01DX009 (ip), vehicle: saline with Tween-80): 103 % of control
- T/C (endpoint: mean survival time, dose: 200.0 mg/kg/injection, schedule: Q01DX009 (ip), vehicle: saline): 115 % of control and 110 % of control
- T/C (endpoint: mean survival time, dose: 200.0 mg/kg/injection, schedule: Q01DX009 (oral), vehicle: saline): 102 % of control
- T/C (endpoint: mean survival time, dose: 400.0 mg/kg/injection, schedule: Q01DX009 (ip), vehicle: saline): 88 % of control and 92 % of control
- T/C (endpoint: mean survival time, dose: 400.0 mg/kg/injection, schedule: Q01DX009 (oral), vehicle: saline): 114 % of control
- T/C (endpoint: median survival time, dose: 20.0 mg/kg/injection, schedule: Q03HX024 (ip), vehicle: saline): 152 % of control and 566 % of control
- T/C (endpoint: median survival time, dose: 21.8 mg/kg/injection, schedule: Q03HX008 (ip), vehicle: suspension in saline): 185 % of control
- T/C (endpoint: median survival time, dose: 22.5 mg/kg/injection, schedule: Q03HX024 (ip), vehicle: suspension in saline): 214 % of control
- T/C (endpoint: median survival time, dose: 32.6 mg/kg/injection, schedule: Q03HX008 (ip), vehicle: suspension in saline): 188 % of control
- T/C (endpoint: median survival time, dose: 40.0 mg/kg/injection, schedule: Q03HX024 (ip), vehicle: saline): 210 % of control and 566 % of control
- T/C (endpoint: median survival time, dose: 45.0 mg/kg/injection, schedule: Q03HX024 (ip), vehicle: suspension in saline): 238 % of control
- T/C (endpoint: median survival time, dose: 45.0 mg/kg/injection, schedule: Q04DX003 (ip), vehicle: suspension in saline): 119 % of control
- T/C (endpoint: median survival time, dose: 48.6 mg/kg/injection, schedule: Q03HX008 (ip), vehicle: suspension in saline): 232 % of control
- T/C (endpoint: median survival time, dose: 50.0 mg/kg/injection, schedule: Q03HX024 (ip), vehicle: saline): 566 % of control
- T/C (endpoint: median survival time, dose: 60.0 mg/kg/injection, schedule: Q03HX024 (ip), vehicle: saline): 566 % of control
- T/C (endpoint: median survival time, dose: 80.0 mg/kg/injection, schedule: Q03HX024 (ip), vehicle: saline): 119 % of control
- T/C (endpoint: median survival time, dose: 90.0 mg/kg/injection, schedule: Q04DX003 (ip), vehicle: suspension in saline): 122 % of control
- T/C (endpoint: median survival time, dose: 108.3 mg/kg/injection, schedule: Q03HX008 (ip), vehicle: suspension in saline): 94 % of control
- T/C (endpoint: median survival time, dose: 161.6 mg/kg/injection, schedule: Q04DX003 (ip), vehicle: suspension in saline): 152 % of control
- T/C (endpoint: median survival time, dose: 180.0 mg/kg/injection, schedule: Q03HX024 (ip), vehicle: suspension in saline): 110 % of control
- T/C (endpoint: median survival time, dose: 241.2 mg/kg/injection, schedule: Q04DX003 (ip), vehicle: suspension in saline): 156 % of control
- T/C (endpoint: median survival time, dose: 360.0 mg/kg/injection, schedule: Q04DX003 (ip), vehicle: suspension in saline): 176 % of control and 211 % of control
- T/C (endpoint: median survival time, dose: 537.3 mg/kg/injection, schedule: Q04DX003 (ip), vehicle: suspension in saline): 184 % of control
- T/C (endpoint: median survival time, dose: 720.0 mg/kg/injection, schedule: Q04DX003 (ip), vehicle: suspension in saline): 122 % of control

Compound: CS(=O)(=O)c1cccnn1
- T/C [9]: 93 % of control
- T/C (endpoint: mean survival time, dose: 200.0 mg/kg/injection, schedule: Q04DX003 (ip), vehicle: saline sonified): 98 % of control
- T/C [10]: 96 % of control

Compound: c1ccc(C(c2ccccc2)c2ccccc2)cc1
- T/C [3]: 97 % of control
- T/C [4]: 98 % of control

Compound: C1CN2CN3CCN(CN1C3)C2
- T/C [5]: 97 % of control
- T/C [7]: 109 % of control
- T/C [8]: 105 % of control
- T/C (endpoint: mean survival time, dose: 100.0 mg/kg/injection, schedule: Q01DX009 (ip), vehicle: saline): 118 % of control

Compound: CCC(C)C(NC(=O)OCc1ccccc1)C(=O)NC(C(=O)NC(CCC(=O)OC(C)(C)C)C(=O)OC)C(C)C (stereo not drawn) (Cbz-Ile-Val-Glu(OtBu)-OMe; configuration not given here)
- T/C [9]: 88 % of control
- T/C [10]: 92 % of control

Compound: CC(=O)Nc1ccc(Nc2ccc(C(=C3C=CC(=[N+](C)CCC#N)C=C3)c3ccc(N(C)CCC#N)cc3)cc2)cc1
- T/C (endpoint: mean survival time, dose: 12.0 mg/kg/injection, schedule: Q01DX009 (ip), vehicle: saline with Tween-80): 107 % of control
- T/C (endpoint: mean survival time, dose: 12.5 mg/kg/injection, schedule: Q01DX009 (ip), vehicle: saline with Tween-80): 107 % of control
- T/C [6]: 105 % of control and 109 % of control
- T/C [1]: 106 % of control

Compound: O=[N+]([O-])c1cccc(C=Nc2ccc3c(c2)C(Br)c2ccccc2-3)c1 (stereo not drawn)
- T/C [3]: 97 % of control
- T/C [4]: 90 % of control
